Results reported in ChEMBL document CHEMBL5247579, “Targeting PGAM1 in cancer: An emerging therapeutic opportunity” (Eur J Med Chem, 2022).
Blank lines part the entries; values can stand above or below the compound they belong to.

Experiments:
[1] = system: PC-9; assay: Antiproliferative activity against human PC-9 cells assessed as reduction in cell viability incubated for 72 hrs by CCK8 assay; format: functional, cell-based; conditions: PC-9, 72 h
[2] = system: A549; assay: Antiproliferative activity against human A549 cells assessed as reduction in cell viability incubated for 72 hrs by CCK8 assay; format: functional, cell-based; conditions: A549, 72 h
[3] = system: KG-1a; assay: Antiproliferative activity against human KG-1a cells assessed as decrease in cell viability incubated for 72 hrs by trypan blue exclusion assay; format: functional, cell-based
[4] = system: NCI-H1299; assay: Antiproliferative activity against human NCI-H1299 cells assessed as decrease in cell viability incubated for 72 hrs by trypan blue exclusion assay; format: functional, cell-based; conditions: NCI-H1299, 72 h
[5] = target: T1, Phosphoglycerate mutase 1 (Homo sapiens, UniProt P18669); assay: Inhibition of recombinant PGAM1 (unknown origin) assessed as decrease in absorbance in presence of LDH, pyruvate kinase M2 and NADH by spectroscopic analysis
[6] = system: ASPC1; assay: Antiproliferative activity against human ASPC1 cells assessed as reduction in cell viability incubated for 24 hrs by CCK-8 assay; format: functional, cell-based; conditions: ASPC1, 24 h
[7] = system: PANC-1; assay: Antiproliferative activity against human PANC-1 cells assessed as reduction in cell viability incubated for 24 hrs by CCK-8 assay; format: functional, cell-based; conditions: PANC-1, 24 h
[8] = system: MIA PaCa-2; assay: Antiproliferative activity against human MIA PaCa-2 cells assessed as reduction in cell viability incubated for 24 hrs by CCK-8 assay; format: functional, cell-based; conditions: MIA PaCa-2, 24 h
[9] = target: T1, Phosphoglycerate mutase 1; assay: Inhibition of His6-tagged human PGAM1 expressed in Escherichia coli BL21(DE3)pLysS cells assessed as decrease in autofluorescence from oxidation of NADH in presence of LDH and pyruvate kinase M1 by multiple enzymes coupled assay
[10] = system: NCI-H1299; assay: Antiproliferative activity against human NCI-H1299 cells assessed as reduction in cell viability incubated for 72 hrs by MTT assay; format: functional, cell-based; conditions: NCI-H1299, 72 h
[11] = system: A549; assay: Antiproliferative activity against human A549 cells assessed as reduction in cell viability incubated for 72 hrs by MTT assay; format: functional, cell-based; conditions: A549, 72 h
[12] = target: T1, Phosphoglycerate mutase 1; assay: Inhibition of His-tagged recombinant PGAM1 (unknown origin) expressed in Escherichia coli BL21 assessed as decrease in absorbance from oxidation of NADH in presence of LDH, pyruvate kinase M1 and NADH by microplate reader assay
[13] = system: HCC827; assay: Antitumor activity against erlotinib-resistant human HCC827 cells assessed as reduction in cell viability incubated for 72 hrs by CCK-8 assay; format: functional, cell-based; conditions: HCC827, 72 h
[14] = system: A549; assay: Antitumor activity against human A549 cells assessed as reduction in cell viability incubated for 72 hrs by CCK-8 assay; format: functional, cell-based; conditions: A549, 72 h
[15] = target: T1, Phosphoglycerate mutase 1; assay: Allosteric inhibition of PGAM1 (unknown origin) assessed as decrease in absorbance in presence of LDH, pyruvate kinase M2 and NADH by spectroscopic analysis
[16] = system: HCC827; assay: Antitumor activity against human HCC827 cells assessed as reduction in cell viability incubated for 72 hrs by CCK-8 assay; format: functional, cell-based; conditions: HCC827, 72 h
[17] = system: MDA-MB-231; assay: Antiproliferative activity against human MDA-MB-231 cells assessed as inhibition of cell proliferation incubated for 12 hrs by BrdU incorporation assay; format: functional, cell-based; conditions: MDA-MB-231, 12 h
[18] = target: T1, Phosphoglycerate mutase 1; assay: Inhibition of human PGAM1 in human MDA-MB-231 cells assessed as decrease in PGAM1 activity incubated for 2 hrs by UV/Vis spectrophotometry; format: cell-based

T1 sequence (P18669 whole entry): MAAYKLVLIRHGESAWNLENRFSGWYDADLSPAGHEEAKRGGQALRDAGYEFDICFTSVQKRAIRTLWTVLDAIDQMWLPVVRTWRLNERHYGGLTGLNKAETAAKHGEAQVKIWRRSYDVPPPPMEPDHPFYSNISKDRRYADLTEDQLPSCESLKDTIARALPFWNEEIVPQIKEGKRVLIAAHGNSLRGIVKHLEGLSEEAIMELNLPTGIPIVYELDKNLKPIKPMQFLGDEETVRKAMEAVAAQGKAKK

Structure (SMILES): O=C1c2ccccc2C(=O)c2c1cc(S(=O)(=O)Nc1ccc(C(F)(F)F)cc1)c(O)c2O
EC50 [1]: 17.8 µM | EC50 [2]: 38.7 µM | EC50 [3]: 17.1 µM | EC50 [4]: 25.6 µM

Structure (SMILES): O=C1c2ccccc2C(=O)c2c1cc(NS(=O)(=O)c1ccc(Cl)cc1)c(O)c2O
EC50 [10]: 6.9 µM | EC50 [11]: 12.7 µM

Structure (SMILES): CC(=O)Oc1ccccc1S(=O)(=O)Nc1cc2c(c(O)c1O)C(=O)c1ccccc1C2=O
IC50 [12]: 1 µM

Structure (SMILES): O=C1c2ccccc2C(=O)c2c1cc(NS(=O)(=O)c1ccc(N3CCC3)cc1)c(O)c2O
EC50 [13]: 1.02 µM | EC50 [14]: 5.62 µM | IC50 [15]: 0.85 µM | EC50 [16]: 1.71 µM

Structure (SMILES): C#CCCCC(=O)OC(C)(C)C1CCCOC(OC(=O)N[C@@H](Cc2c[nH]c3ccccc23)C(=O)OCc2ccccc2)C1 (some centres not stated)
IC50 [17]: 19 µM | EC50 [18]: 33 µM

Second part, led by results:

IC50 [5]: 5.4 µM
Structure (SMILES): O=C1c2ccccc2C(=O)c2c1cc(NS(=O)(=O)O)c(O)c2O

IC50 [5]: 0.105 µM | EC50 [6]: 0.51 µM | EC50 [7]: 0.501 µM | EC50 [8]: 0.271 µM
Structure (SMILES): O=C1c2ccccc2C(=O)c2c1cc(NS(=O)(=O)c1ccc(N3CCCC3)cc1)c(O)c2O

IC50 [9]: > 20 µM
Structure (SMILES): O=C1c2ccccc2C(=O)c2c1ccc(O)c2O [ATHRAQUINONES A]
EC50 [3]: 60.2 µM

IC50 [12]: 1.3 µM
Structure (SMILES): [N-]=[N+]=NCCCCC(=O)Oc1ccccc1S(=O)(=O)Nc1cc2c(c(O)c1O)C(=O)c1ccccc1C2=O

IC50 [5]: 0.77 µM
Structure (SMILES): CN(C)c1ccc(S(=O)(=O)Nc2cc3c(c(O)c2O)C(=O)c2ccccc2C3=O)cc1
